Source: patent US12390472B2 (SUZHOU SINOVENT PHARMACEUTICALS CO., LTD., priority 2018, dated 2025)
Where two headings read alike, the source gives them in different places.

Experiments:
WSU-DLCL2 = test: Methylated lysine of histone-H3 (H3K27Me3) detection by ELISA, WSU-DLCL2 cells; assay type: cell-based; details: Homo sapiens, WSUDLCL2, 168 h; WSU-DLCL2, 7 days treatment, H3K27Me3 normalized to total histone-3; read-out: IC50 of cell methylation, WSU-DLCL2
Summary of the method: (§1)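 Cells were treated 7 days with compound (4-fold dilutions, 20 uM-0.009 nM), then lysed hypotonically with NaCl adjusted to ~100 mM. Lysate-coated plates were probed by ELISA for H3K27Me3 and total H3 (TMB, A450). Methylation signal was normalised to total H3 before curve fitting.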

[1] = In vivo pharmacokinetic properties in mice; set-up: species or system mouse; Cmax: unit: ng/mL; details: male ICR mice; for F: intragastric 250 mg/kg vs intravenous 5 mg/kg; for CL / AUC(0-inf) / Cmax / Tmax / half-life / AUC0-∞ / T1/2: single intravenous 5 mg/kg and intragastric 250 mg/kg study
Description: Male ICR mice were divided into different groups with 3 mice in each group, and single intravenous injection and single intragastric administration were conducted respectively. The compounds were formulated with 10% DMSO/90% (20% Captisol) to reach an appropriate concentration and then administered intravenously at 5 mg/kg. The compounds were formulated with 0.5% CMC-Na/0.1% Tween 80 (pH=3-4) to reach an appropriate concentration and then administered intragastrically at 250 mg/kg. Blood was taken at 5 min, 15 min, 30 min, 1 h, 2 h, 4 h, 6 h, 8 h and 24 h after administration, and then subjected to EDTA-K2 anticoagulation. The concentration of the compound in the plasma was quantitatively detected by an LC-MS/MS method.

Pfeiffer = test: Methylated lysine of histone-H3 (H3K27Me3) detection by ELISA, Pfeiffer cells; assay type: cell-based, human; details: Homo sapiens, 168 h, 7 days treatment, H3K27Me3 normalized to total histone-3, read-out: IC50 of cell methylation, Pfeiffer
Summary of the method: as §1

EZH2 enzyme complex = EZH2 enzyme complex (Homo sapiens (Human), UniProt Q15910); test: Test on EZH2 inhibitory activity (TR-FRET); assay type: biochemical; details: EZH2 enzyme complex 25 ng/uL, histone H3 peptide 4 uM, SAM 2 uM, 300 min; read-out: IC50 of EZH2 inhibition
Chain of EZH2 enzyme complex (Q15910 whole entry): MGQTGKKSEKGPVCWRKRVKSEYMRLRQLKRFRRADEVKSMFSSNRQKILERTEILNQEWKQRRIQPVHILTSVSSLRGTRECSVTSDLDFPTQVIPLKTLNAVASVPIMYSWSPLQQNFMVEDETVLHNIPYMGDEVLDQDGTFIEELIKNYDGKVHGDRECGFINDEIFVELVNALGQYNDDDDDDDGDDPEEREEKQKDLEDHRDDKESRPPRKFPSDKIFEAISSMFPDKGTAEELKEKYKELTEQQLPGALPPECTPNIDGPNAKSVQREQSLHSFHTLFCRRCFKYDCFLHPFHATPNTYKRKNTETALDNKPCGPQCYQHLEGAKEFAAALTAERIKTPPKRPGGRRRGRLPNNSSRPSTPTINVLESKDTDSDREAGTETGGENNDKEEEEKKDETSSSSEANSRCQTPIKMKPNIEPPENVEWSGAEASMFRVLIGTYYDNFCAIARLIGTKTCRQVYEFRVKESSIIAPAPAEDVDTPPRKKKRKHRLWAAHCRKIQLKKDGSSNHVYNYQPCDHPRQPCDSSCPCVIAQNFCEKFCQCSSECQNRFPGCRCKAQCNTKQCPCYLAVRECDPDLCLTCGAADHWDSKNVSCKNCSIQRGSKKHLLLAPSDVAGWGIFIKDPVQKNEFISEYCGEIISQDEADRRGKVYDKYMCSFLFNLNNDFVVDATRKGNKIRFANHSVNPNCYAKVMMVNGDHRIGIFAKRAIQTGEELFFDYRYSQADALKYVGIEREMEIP
Chain of EZH2 enzyme complex (O75530 whole entry partner): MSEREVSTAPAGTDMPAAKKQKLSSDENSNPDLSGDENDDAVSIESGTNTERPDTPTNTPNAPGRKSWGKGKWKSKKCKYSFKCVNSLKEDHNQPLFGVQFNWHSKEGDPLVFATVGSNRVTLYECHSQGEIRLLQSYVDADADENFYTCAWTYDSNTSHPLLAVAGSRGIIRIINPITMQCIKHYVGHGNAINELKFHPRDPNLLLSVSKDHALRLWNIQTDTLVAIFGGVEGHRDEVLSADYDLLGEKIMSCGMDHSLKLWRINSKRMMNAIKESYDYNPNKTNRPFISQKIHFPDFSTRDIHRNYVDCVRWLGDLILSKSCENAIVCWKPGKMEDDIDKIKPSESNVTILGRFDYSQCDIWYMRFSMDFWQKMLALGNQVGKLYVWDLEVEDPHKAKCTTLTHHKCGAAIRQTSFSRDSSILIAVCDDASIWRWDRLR
Chain of EZH2 enzyme complex (Q15022 whole entry partner): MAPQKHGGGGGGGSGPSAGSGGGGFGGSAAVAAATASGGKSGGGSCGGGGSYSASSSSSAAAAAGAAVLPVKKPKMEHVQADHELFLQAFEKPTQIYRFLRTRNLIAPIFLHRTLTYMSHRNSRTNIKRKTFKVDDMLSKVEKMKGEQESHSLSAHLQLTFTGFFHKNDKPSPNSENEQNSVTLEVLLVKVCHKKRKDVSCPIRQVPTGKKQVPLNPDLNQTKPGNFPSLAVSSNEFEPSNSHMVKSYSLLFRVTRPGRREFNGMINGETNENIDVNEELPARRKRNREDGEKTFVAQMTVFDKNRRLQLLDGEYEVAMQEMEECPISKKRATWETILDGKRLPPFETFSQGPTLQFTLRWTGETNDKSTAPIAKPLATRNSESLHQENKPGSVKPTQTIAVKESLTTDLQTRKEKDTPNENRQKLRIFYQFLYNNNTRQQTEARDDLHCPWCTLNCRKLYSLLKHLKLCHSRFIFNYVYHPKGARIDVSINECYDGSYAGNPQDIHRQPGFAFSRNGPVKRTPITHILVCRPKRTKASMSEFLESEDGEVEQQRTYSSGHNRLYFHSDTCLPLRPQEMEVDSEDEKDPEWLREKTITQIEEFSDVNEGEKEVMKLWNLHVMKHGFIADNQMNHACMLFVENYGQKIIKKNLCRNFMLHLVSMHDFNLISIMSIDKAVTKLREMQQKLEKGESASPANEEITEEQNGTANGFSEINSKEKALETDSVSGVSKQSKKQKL

[2] = tested on: subcutaneous xenograft tumor model of human B lymphocyte Pfeiffer; test: In vivo efficacy in subcutaneous xenograft tumor model of human B lymphocyte Pfeiffer; set-up: species or system mouse; details: SCID Beige mice, 100 mg/kg p.o. QD 21 days, tumor volume 21 days after administration
Description: Human B lymphocyte strain Pfeiffer was cultured in vitro, in a monolayer way, in a RPMI-1640 medium containing 10% fetal bovine serum, 100 U/mL penicillin and 100 μg/mL streptomycin in an incubator at 37° C./5% CO2. Conventional medium refreshment and subculturing were carried out twice a week, and cells in logarithmic growth phase were collected and used for tumor inoculation after being counted.
Female SCID Beige mice, aged 6-8 weeks and weighed 18-22 g were used in the experiment. The experiment started after 7-day adaptive feed.
Each mouse was inoculated subcutaneously with 10×10^6 Pfeiffer cells in a volume of 0.2 mL in the right side of the neck. The cells were suspended with PBS and matrigel (volume ratio 1:1). After the average tumor volume reached 130 mm^3, the mice were divided into groups with 8 mice per group for administration. The administration volume was 10 uL/g and the dose was 100 mg/kg if there's no special labeling ((p.o. administration, QD, continuous administration for 21 days).
Animal body weights were measured twice weekly and animal mortality and side effects within each group were recorded based on the number of animals in the group.
The experimental indices were to investigate whether tumor growth was inhibited or delayed or the tumor was cured. Tumor diameters were measured twice weekly using a vernier caliper. The tumor volume was calculated according to the following formula: V=0.5 a×b^2, where a and b represent the long diameter and short diameter of the tumor, respectively. The tumor growth inhibitions (TGIs) of the compounds were evaluated by T/C (%). The percentage value of T/C (%) is an index for reflecting the tumor growth inhibition, where T and C represent the average tumor volume of the administration group and the control group, respectively, at a certain day.
The tumor growth inhibition rate was calculated according to the following formula: TGI (%)=(1−(Ti−T0)/(Vi−V0))×100, where Ti is the average tumor volume of a certain administration group on a certain day, T0 is the average tumor volume of the administration group at the start of administration, Vi is the average tumor volume of the vehicle control group on a certain day (same day as Ti) and V0 is the average tumor volume of the vehicle control group at the start of administration.
Relative tumor volumes at each time point for each group were statistically analyzed and differences among groups were assessed based on the data. The statistical method used for testing was one-way ANOVA.

Pfeiffer cells = test: Experiment on Pfeiffer cell proliferation (CellTiter-Glo); assay type: cell-based, human
Description: 90 uL of cells were added to each well of a 96-well plate at 12000 cells/well, and cell-free culture medium was added to blank control wells. The plate was incubated overnight in an incubator at 37° C., 5% CO2 and 100% relative humidity. The compounds were diluted from highest to lowest concentration gradient with DMSO to make stock solutions at 400-fold and 10-fold concentration. 10 μL of 10× compound working solution was added to the cell culture plate, and the total concentration of the compound was detected from 10 μM, 9 concentration points in total, and 3-fold serial dilution was performed. 10 μL of DMSO-cell culture medium mixture solution was added to the vehicle control wells and blank control wells. The final concentration of DMSO was 0.25%. The plate was put back in the incubator for another 7 days of culturing.
The cell culture plate cultured for 7 days was taken out of the incubator, and the suspended cells in the 96-well plate were mixed well by pipetting multiple times. 74 uL of fresh cell culture medium was added to a new 96-well plate, and 16 uL of cell suspension was pipetted from the 96-well plate with cells mixed well by pipetting into the new 96-well plate to bring the total volume to 90 uL. Cells in the new 96-well plate were treated with the compound. The new 96-well plate was put back in the incubator for another 7 days of culturing, and then cell viability was detected directly.
84 μL of cell suspension was taken from the cell culture plate for cell viability detection.
CellTiter-Glo buffer and substrate were thawed and balanced to room temperature. The CellTiter-Glo buffer was added to a bottle of CellTiter-Glo substrate to dissolve the substrate, thereby preparing CellTiter-Glo working solution. The bottle was subjected to slow vortex shaking to completely dissolve the substrate. The cell culture plate was taken out and balanced to room temperature for 30 min. 50 μL of CellTiter-Glo working solution was added to each well. The cell plate was wrapped with aluminum foil to keep out of light. The plate was shaken on an orbital shaker for 2 min to induce cell lysis. The plate was placed at room temperature for 10 min to stabilize the luminescence signals. The luminescence signals were detected on 2104 En Vision plate reader.
Inhibition rates of compounds at different concentrations were calculated in Excel, followed by plotting the inhibition curves and calculating relevant parameters including minimum (%), maximum (%), and absolute IC50 using GraphPad Prism software.

WSU-DLCL2 cells = test: Experiment on WSU-DLCL2 cell proliferation (Calcein-AM); assay type: cell-based
Description: WSU-DLCL2 cells were plated in a 96-well plate and 100 uL of cells (a density of 1×10^5 cells/mL) and 50 uL of compound stock at 3-fold concentration was added to each well, and the final volume was 150 uL/well. After 6 days of culturing, on day 7, the cells in the well plate were mixed well by pipetting, and 50 uL of the cell suspension was pipetted to be tested for cell viability using Calcein-AM. 50 uL of the cell suspension was added to a 96-well plate coated by poly-D-Lysine, and then 50 uL of HBSS containing 2 uM Calcein-AM was added to make the final concentration of Calcein-AM 1 uM. After incubation for 10 min at room temperature, the cells were rapidly centrifuged to be deposited on the bottom of the plate. The cells were cultured in the incubator for another 40 min and then the plate was read on Acumen.
The remaining cells were diluted and then plated in a 96-well plate, and 100 uL of cells and 50 uL of a compound at 3-fold concentration were added to each well for further culturing until day 14, and the cell viability was detected as described above. The IC50 was calculated.

[3] = mouse, plasma, oral, read-out: Cmax
[4] = mouse, plasma, oral, read-out: Tmax
[5] = Day 7, read-out: IC50 Pfeiffer proliferation Day 7
[6] = Day 14, read-out: IC50 Pfeiffer proliferation Day 14
[7] = WSU-DLCL2, Day 7, read-out: IC50 WSU-DLCL2 proliferation Day 7
[8] = WSU-DLCL2, Day 14, read-out: IC50 WSU-DLCL2 proliferation Day 14

SMILES | IC50 (WSU-DLCL2) [µM] | F [1] [%] | CL [1] [mL/min/lg] | AUC(0-inf) ([1]; mouse, plasma, oral) [ng·h/mL] | Cmax [1, 3] [ng/mL] | Tmax [1, 4] [h] | half-life ([1]; mouse, plasma) [h] | IC50 (Pfeiffer) [µM] | IC50 (EZH2 enzyme complex) [µM] | TGI [2] [%] | IC50 (Pfeiffer cells; [5]) [µM] | IC50 (Pfeiffer cells; [6]) [µM] | IC50 (WSU-DLCL2 cells; [7]) [µM] | IC50 (WSU-DLCL2 cells; [8]) [µM] | AUC0-∞ [1] [ng·h/mL] | Cmax [1] [ng/mL] | T1/2 [1] [h] | Tmax [1] [h]
CCN(c1cc(O[C@H]2C[C@H](N3C[C@@H](C)O[C@@H](C)C3)C2)cc(C(=O)NCc2c(C)cc(C)[nH]c2=O)c1C)C1CC2CCC(C1)O2 (stereo partly drawn) [Example 47, 3-((8-oxabicyclo[3.2.1]octan-3-yl)(ethyl)amino)-N-((4,6-dimethyl-2-oxo-1,2-dihydropyridin-3-yl)methyl)-5-(trans-3-(cis-2,6-dimethylmorpholinyl)cyclobutoxy)-2-methylbenzamide] | 0.05 to 0.5 | 118.1 | 103 ± 11.9 | 48000 | 19600 ± 8050 | 0.67 ± 0.29 | 3.1 ± 1.04 | 0.05 to 0.5 | 0.01 to 0.1 | – | – | – | – | – | – | – | – | –
CCN(c1cc(O[C@H]2C[C@H](N3CCOCC3)C2)cc(C(=O)NCc2c(C)cc(C)[nH]c2=O)c1C)C1CCC(F)(F)CC1 [Example 63, 3-((4,4-difluorocyclohexyl)(ethyl)amino)-N-((4,6-dimethyl-2-oxo-1,2-dihydropyridin-3-yl)methyl)-2-methyl-5-(trans-3-morpholinocyclobutoxy)benzamide] | – | – | – | – | – | – | – | – | 0.01 to 0.1 | 53.67 | – | – | – | – | – | – | – | –
CCN(c1cc(OC2CNC2)cc(C(=O)NCc2c(C)cc(C)[nH]c2=O)c1C)C1CCOCC1 [EPZ195, reference compound] | – | 2.64 | 36.5 ± 6.21 | – | – | – | – | – | – | – | 0.385 | 0.127 | 1.43 | 0.281 | 3071 ± 486 | 945 ± 283 | 5.12 ± 0.89 | 1.42 ± 1.01
CCN(c1cc(O[C@H]2C[C@H](N3CCC(C)CC3)C2)cc(C(=O)NCc2c(C)cc(C)[nH]c2=O)c1Cl)C1CCOCC1 [Example 59, 2-chloro-N-((4,6-dimethyl-2-oxo-1,2-dihydropyridin-3-yl)methyl)-3-(ethyl(tetrahydro-2H-pyran-4-yl)amino)-5-(trans-3-(4-methylpiperidin-1-yl)cyclobutoxy)benzamide] | < 0.05 | 60.5 | 59.1 ± 6.95 | 43000 | 16600 | 0.8 ± 0.27 | 6.2 ± 3.83 | 0.05 to 0.5 | < 0.01 | – | – | – | – | – | – | – | – | –
CCN(c1cc(O[C@H]2C[C@H](N3CCOCC3)C2)cc(C(=O)NCc2c(C)cc(C)[nH]c2=O)c1C)C1CCOCC1 [Example 4, N-((4,6-dimethyl-2-oxo-1,2-dihydropyridin-3-yl)methyl)-3-(ethyl(tetrahydro-2H-pyran-4-yl)amino)-2-methyl-5-(trans-3-morpholinylcyclobutoxy)benzamide] | 0.05 to 0.5 | 25.1 | 60.6 ± 19.36 | 18800 ± 487 | 16500 ± 4630 | 0.33 ± 0.14 | 3.13 ± 3.1 | < 0.05 | 0.01 to 0.1 | – | – | – | – | – | – | – | – | –
CCN(c1cc(OC2CN(C(=O)OC(C)(C)C)C2)cc(C(=O)NCc2c(C)cc(C)[nH]c2=O)c1C)C1CCOCC1 [EPZ194, reference compound] | – | 9.91 | 59.5 ± 19.1 | – | – | – | – | – | – | – | 0.062 | 0.011 | 0.106 | 0.023 | 7476 ± 1311 | 4059 ± 1830 | 2.13 ± 1.02 | 0.83 ± 0.29
CCN(c1cc(OC2CCC2)cc(C(=O)NCc2c(C)cc(C)[nH]c2=O)c1C)C1CCOCC1 [Example 1, 5-cyclobutoxy-N-((4,6-dimethyl-2-oxo-1,2-dihydropyridin-3-yl)methyl)-3-(ethyl(tetrahydro-2H-pyran-4-yl)amino)-2-methylbenzamide] | 0.05 to 0.5 | – | – | – | – | – | – | < 0.05 | 0.01 to 0.1 | – | – | – | – | – | – | – | – | –
